From patent publication US7713994B2 (Wyeth LLC, priority 2005, dated 2010)

Legend:
cyclin D1/cdk 4 enzyme = target: T1, cyclin D1/cdk 4 enzyme (Homo sapiens, UniProt P11802); assay: CDK4 ELISA kinase assay (phospho-Rb ser 795 detection); format: biochemical; details: In Vitro Enzyme Assays, 200 μM ATP, read-out: CDK4 IC50
T1 construct: made in house; host or cells: Sf9 insect cells, recombinant baculovirus
Outline: (§1)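 Sf9-derived cyclin/CDK, 200 μM ATP, immobilized GST-Rb; 30° C/1 h. Detection: phospho-Ser795 Ab, HRP, TMB, OD450.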

cyclin E/CDK2 enzyme = target: T2, cyclin E/CDK2 enzyme (Homo sapiens, UniProt P24941); assay: CDK2 ELISA kinase assay (phospho-Rb ser 795 detection); format: biochemical; details: In Vitro Enzyme Assays, read-out: CDK2 IC50
T2 construct: made in house; host or cells: Sf9 insect cells, recombinant baculovirus
Outline: as §1

cyclin B/CDK1 enzyme = target: T3, cyclin B/CDK1 enzyme (Homo sapiens, UniProt P06493); assay: CDK1 ELISA kinase assay (phospho-Rb ser 795 detection); format: biochemical; details: In Vitro Enzyme Assays, read-out: CDK1 IC50
T3 construct: purchased New England BioLabs; host or cells: Sf9 insect cells, recombinant baculovirus
T3 sequence (P06493 whole entry): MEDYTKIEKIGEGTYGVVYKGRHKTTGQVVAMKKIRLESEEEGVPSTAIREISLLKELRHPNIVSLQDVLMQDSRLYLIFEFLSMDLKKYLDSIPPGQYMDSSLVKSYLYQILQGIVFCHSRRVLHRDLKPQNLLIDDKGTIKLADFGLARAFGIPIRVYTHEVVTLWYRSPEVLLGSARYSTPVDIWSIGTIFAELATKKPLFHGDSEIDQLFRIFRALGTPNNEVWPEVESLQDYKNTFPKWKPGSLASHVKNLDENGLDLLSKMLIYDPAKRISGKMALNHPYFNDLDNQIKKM
T3 sequence (P14635 whole entry partner): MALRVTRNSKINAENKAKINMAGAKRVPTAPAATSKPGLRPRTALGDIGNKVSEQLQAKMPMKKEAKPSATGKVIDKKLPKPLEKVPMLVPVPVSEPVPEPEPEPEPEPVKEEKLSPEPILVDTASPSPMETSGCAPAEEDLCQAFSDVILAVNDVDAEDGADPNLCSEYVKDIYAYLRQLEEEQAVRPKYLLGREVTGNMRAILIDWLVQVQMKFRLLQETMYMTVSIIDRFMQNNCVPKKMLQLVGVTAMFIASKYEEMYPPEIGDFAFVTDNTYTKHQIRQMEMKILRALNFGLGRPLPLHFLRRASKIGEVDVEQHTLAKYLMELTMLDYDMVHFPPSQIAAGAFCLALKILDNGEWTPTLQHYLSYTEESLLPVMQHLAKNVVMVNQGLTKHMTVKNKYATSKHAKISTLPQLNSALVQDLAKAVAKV
Outline: as §1

BT474 = assay: Cytotoxicity assay (SRB), BT474; format: cell-based; details: Homo sapiens, BT-474, 144 h, BT474 cells, 6 days, SRB; read-out: In Vitro Cellular Activity IC50 BT474
Outline: (§2)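 Protein staining with sulforhodamine B after cold TCA fixation served as the survival endpoint (A540, relative to untreated cells). Before staining, cells were incubated with compound at 37 °C, 7% CO2 for 3 days, or 6 days for BT474.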

HCT-116 = assay: Cytotoxicity assay (SRB), HCT-116; format: cell-based; details: Homo sapiens, HCT-116, 72 h, HCT116 cells, 3 days, SRB; read-out: In Vitro Cellular Activity IC50 HCT116
Outline: as §2

LoVo = assay: Cytotoxicity assay (SRB), LoVo; format: cell-based; details: Homo sapiens, LoVo, 72 h, LoVo cells, 3 days, SRB; read-out: In Vitro Cellular Activity IC50 LOVO
Outline: as §2

MCF-7 = assay: Cytotoxicity assay (SRB), MCF-7; format: cell-based; details: Homo sapiens, MCF7, 72 h, MCF-7 cells, 3 days, SRB; read-out: In Vitro Cellular Activity IC50 MCF-7
Outline: as §2

T1 sequence (P11802 whole entry, species assumed): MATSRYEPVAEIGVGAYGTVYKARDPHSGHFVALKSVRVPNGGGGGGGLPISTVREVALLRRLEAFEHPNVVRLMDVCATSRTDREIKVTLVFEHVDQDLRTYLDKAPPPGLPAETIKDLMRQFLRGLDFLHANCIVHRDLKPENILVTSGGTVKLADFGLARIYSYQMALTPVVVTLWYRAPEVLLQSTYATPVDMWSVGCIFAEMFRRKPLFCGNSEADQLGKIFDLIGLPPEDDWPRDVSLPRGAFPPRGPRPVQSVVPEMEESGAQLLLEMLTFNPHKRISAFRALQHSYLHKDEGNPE
T1 sequence (P24385 whole entry partner, species assumed): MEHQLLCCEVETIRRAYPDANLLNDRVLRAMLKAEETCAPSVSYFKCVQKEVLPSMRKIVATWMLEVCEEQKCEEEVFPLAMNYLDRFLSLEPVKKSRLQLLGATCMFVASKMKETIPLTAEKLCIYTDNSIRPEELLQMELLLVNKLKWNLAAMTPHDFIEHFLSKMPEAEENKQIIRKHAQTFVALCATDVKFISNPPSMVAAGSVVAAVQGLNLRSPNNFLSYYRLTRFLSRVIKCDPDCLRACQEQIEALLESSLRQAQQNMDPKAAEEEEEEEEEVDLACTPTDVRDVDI

SMILES | IC50 (cyclin D1/cdk 4 enzyme) [µM] | IC50 (cyclin E/CDK2 enzyme) [µM] | IC50 (cyclin B/CDK1 enzyme) [µM] | IC50 (BT474) [µM] | IC50 (HCT-116) [µM] | IC50 (LoVo) [µM] | IC50 (MCF-7) [µM]
O=C1NC(=O)c2ccc(I)cc2/C1=C/Nc1ccc(N2CCC(C(=O)O)CC2)cc1 [Example 431, 1-(4-{[(Z)-(6-Iodo-1,3-dioxo-2,3-dihydroisoquinolin-4(1H)-ylidene)methyl]amino}phenyl)piperidine-4-carboxylic acid] | 1.3 | 4.1 | 8.6 | 6.4 | 6.1 | 5.8 | 8.8
CON(C)C(=O)C1CCN(c2ccc(N/C=C3\C(=O)NC(=O)c4ccc(I)cc43)cc2)CC1 [Example 432, 1-(4-{[(Z)-(6-Iodo-1,3-dioxo-2,3-dihydroisoquinolin-4(1H)-ylidene)methyl]amino}phenyl)-N-methoxy-N-methylpiperidine-4-carboxamide] | 6.5 | > 50 | > 50 | 9.3 | 11.1 | 8.5 | 24.2
O=C1NC(=O)c2ccc(I)cc2/C1=C/Nc1ccc(N2CCC(CO)CC2)cc1 [Example 434, (4Z)-4-[({4-[4-(Hydroxymethyl)piperidin-1-yl]phenyl}amino)methylene]-6-iodoisoquinoline-1,3(2H,4H)-dione] | > 50 | > 50 | 40.6 | 8.1 | 4.5 | 8.2 | 31.5
COCC1CCN(c2ccc(N/C=C3\C(=O)NC(=O)c4ccc(I)cc43)cc2)CC1 [Example 435, (4Z)-6-Iodo-4-[({4-[4-(methoxymethyl)piperidin-1-yl]phenyl}amino)methylene]isoquinoline-1,3(2H,4H)-dione] | 4.6 | 38.8 | > 50 | 8.5 | 3.2 | 5.2 | 26
CCC1CCCN1Cc1ccc(N/C=C2\C(=O)NC(=O)c3ccc(I)cc32)cc1 (stereo not drawn) [Example 436, 4-{[4-(2-Ethyl-pyrrolidin-1-ylmethyl)-phenylamino]-methylene}-6-iodo-4H-isoquinoline-1,3-dione] | 0.26 | > 50 | > 50 | 0.4 | 2.5 | 2.3 | 1.5
O=C1NC(=O)c2ccc(-c3ccc(Cl)s3)cc2/C1=C/Nc1ccc(CN2CCC[C@H]2CO)cc1 [Example 441, 6-(5-Chloro-thiophen-2-yl)-4-{[4-(2-hydroxymethyl-pyrrolidin-1-ylmethyl)-phenylamino]-methylene}-4H-isoquinoline-1,3-dione] | 0.14 | > 50 | > 50 | 3.2 | 1.1 | 2.9 | 2.3
CN1CCN(c2ccc(N/C=C3\C(=O)NC(=O)c4ccc(I)cc43)c(F)n2)CC1 [Example 445, (4Z)-4-({[2-Fluoro-6-(4-methylpiperazin-1-yl)pyridin-3-yl]amino}methylene)-6-iodoisoquinoline-1,3(2H,4H)-dione] | 0.32 | > 50 | > 50 | 2.8 | 1.8 | 2.7 | 3.2
CN(C)CCNCC1CCN(c2ccc(N/C=C3\C(=O)NC(=O)c4ccc(I)cc43)cc2)CC1 [Example 446, (4Z)-4-[({4-[4-({[2-(Dimethylamino)ethyl]amino}methyl)piperidin-1-yl]phenyl}amino)methylene]-6-iodoisoquinoline-1,3(2H,4H)-dione] | 0.28 | > 50 | > 50 | 3.4 | 1.7 | 2.9 | 3
CN1CCN(c2ccc(N/C=C3\C(=O)NC(=O)c4ccc(I)cc43)c(O)n2)CC1 [Example 447, (4Z)-4-({[2-Hydroxy-6-(4-methylpiperazin-1-yl)pyridin-3-yl]amino}methylene)-6-iodoisoquinoline-1,3(2H,4H)-dione] | 7.5 | 17.6 | 12.9 | 3 | 2 | 3.5 | 3.6
